Test results published in US5977144A (priority 1997, dated 1999).
Entries after “also recorded” stand apart in the source; their conditions may differ.

Assays:
[1] = system: rat primary neocortical neurons; assay type: cell-based
fimbrial transections = conditions: Meyer et al., in press; cited from earlier work
rat = conditions: adult rat
[2] = system: animal models of learning and memory; conditions: animals; cited from earlier work
PC12 cells = assay type: cell-based
Method: PC12 cell-culture methods were modified from Greene and Tischler (1976). Cells were plated at 30-40% confluence and grown in Dulbecco's Modified Eagle Medium containing 10% heat-inactivated horse serum, 5% fetal bovine serum, 100 units/ml penicillin, 100 μg/ml streptomycin and 0.5 mM 1-glutamine. Cultures were maintained at 37° C., […] /6% CO2 and 90-92% humidity in culture plates pre-coated with poly-1lysine (10 g/L). Cultures were maintained for 7 days in serum-supplemented medium to which 100 ng/ml rat 2.5S NGF was added at day 1. On day 7, conditioned medium was replaced serum-free medium containing specified drugs. Four days later, cell density was estimated using the NIH Image program version 1.47 and number of neurite-expressing cells counted manually in blind fashion as described previously (Martin et al., 1994). A Nikon inverted microscope (100× magnification) was attached to a Mac II computer via a monochrome video camera (Cohu, Inc., San Diego, Calif.). Four random areas were counted per plate and there were 4 plates per treatment group, unless otherwise indicated. Neurites were defined as processes at least 2× the length of the perikaryon. To assess the reliability of the image analyses, a reticle was used for direct quantification of cells in the same view as the one analyzed in random samples.
PC12 cells were differentiated for 1 week with NGF. Drugs were administered for the 4 day interval after removal of serum and NGF. Neuites were counted and expressed as the mean±SEM of at least 3 plates/group.

Structure (SMILES)	protection against glutamate, concomitant (in words) ([1]; 10 μM, with 1 mM glutamate)	protection against NMDA receptor-mediated toxicity (in words) ([1]; 24 hr prior to glutamate or NMDA)	effect on kainate-induced neurotoxicity (in words) ([1]; kainate)	activity against fimbrial transections in vivo (in words) (fimbrial transections)	spontaneous locomotor activity (in words) (rat)	memory-related performance (in words) [2]	neurite protection during NGF-deprivation (in words) (PC12 cells; 10 μM)	Neurite Counts (PC12 cells; 10 μM (NGF 100 ng/ml), 4 days after removal of serum and NGF, mean±SEM, * p<0.05)
COc1ccc(/C=C2\CCCN=C2c2cccnc2)c(OC)c1 [DMXB, 3-(2,4-Dimethoxybenzylidene) anabaseine]	not observed when administered concomitantly with glutamate	protects rat primary neocortical neurons against NMDA-receptor mediated excitotoxicity; also recorded: protected against NMDA receptor-mediated toxicity	no effect	neuroprotective activity	without adversely affecting the animal's other functions, including its spontaneous locomotor activity	enhances performance in several spatial and non-spatial memory-related paradigms in rats and rabbits		
COc1ccccc1/C=C/C=C1\CCCN=C1c1cccnc1 [2-MeOCA, E,E-3-(2-Methoxycinnamylidene)anabaseine]							Neither 2-MeOCA nor 4-MeOCA elicited neurite-protection	213 ± 26
